Experimental data reported in US4698352A, “4-oxo-1,4-dihydronicotinic acid derivatives, salts thereof, and antibacterial agents containing the same” (Toyama Chemical Co., Ltd., priority 1982, dated 1987).
Values after ≈ are worked out from the molar mass of the structure shown. Like-named read-outs stand apart in the source and are kept apart here.

Columns and labels:
Assay in all cases: Antibacterial activity (MIC), agar dilution
Assay type in all cases: cell-based
[1] = test system: Aci. antitratus A-6; details: 20 h, Aci. antitratus A-6; 10^6 cells per ml; 37° C., 20 hours; read-out: MIC
Excerpt: (§1) The amount of bacteria inoculated was 10^4 cells per plate (10^6 cells per ml).

[2] = test system: E. coli NIHJ JC-2; details: Escherichia coli, NIHJJC2, 20 h
Excerpt: as §1

[3] = test system: E. coli TK-111; details: Escherichia coli, TK111, 20 h, E. coli TK-111; 10^6 cells per ml; 37° C., 20 hours; read-out: MIC
Excerpt: as §1

[4] = test system: Ent. cloacae IID977; details: Enterobacter cloacae, IID977, 20 h
Excerpt: as §1

[5] = test system: Kl. pneumoniae Y-41; details: Klebsiella pneumoniae, Y41, 10^6 cells per ml, 37° C., 20 hours, read-out: MIC
Excerpt: as §1

[6] = test system: Kl. pneumoniae Y-50; details: Klebsiella pneumoniae, Y50, 20 h, 10^6 cells per ml, 37° C., read-out: MIC
Excerpt: as §1

[7] = test system: Pro. mirabilis T-111; details: Proteus mirabilis, 37° C.
Excerpt: as §1

[8] = test system: Pro. morganii T-216; details: Morganella morganii, 37° C.
Excerpt: as §1

[9] = test system: Pro. vulgaris GN3027; details: Proteus vulgaris, GN3027, 20 h, Pro. vulgaris GN3027; 10^6 cells per ml; 37° C., 20 hours; read-out: MIC
Excerpt: as §1

[10] = test system: Ps. aeruginosa IFO3445; details: Pseudomonas aeruginosa
Excerpt: as §1

[11] = test system: Ps. aeruginosa S-68; details: Pseudomonas aeruginosa
Excerpt: as §1

[12] = test system: St. aureus FDA209P; details: Staphylococcus aureus, FDA209P, 20 h
Excerpt: as §1

[13] = test system: E. coli TK-3*; details: Escherichia coli, 20 h, E. coli TK-3, penicillinase-producing; 10^6 cells per ml; read-out: MIC
Excerpt: as §1
(§2) * Penicillinase-producing bacteria

[14] = test system: Kl. pneumoniae Y-4*; details: Klebsiella pneumoniae, 20 h, Kl. pneumoniae Y-4, penicillinase-producing; 10^6 cells per ml; read-out: MIC
Excerpt: as §1, §2

[15] = test system: Ps. aeruginosa GN3379*; details: Pseudomonas aeruginosa, Ps. aeruginosa GN3379, penicillinase-producing, 10^6 cells per ml
Excerpt: as §1, §2

[16] = test system: St. aureus F-137*; details: Staphylococcus aureus, 20 h
Excerpt: as §1, §2

[17] = test system: E. coli GN5482**; details: Escherichia coli, 20 h; E. coli GN5482, cephalospolinase-producing; 10^6 cells per ml; read-out: MIC
Excerpt: as §1
(§3) ** Cephalospolinase-producing bacteria

[18] = test system: Pro. vulgaris GN76**; details: Proteus vulgaris
Excerpt: as §1, §3

[19] = test system: Ps. aeruginosa GN918**; details: Ps. aeruginosa GN918, cephalospolinase-producing, 10^6 cells per ml
Excerpt: as §1, §3

[20] = E. coli NIHJ JC-2, 10^6 cells per ml, 37° C., 20 hours, read-out: MIC
[21] = Ent. cloacae IID977, 10^6 cells per ml, 37° C., 20 hours, read-out: MIC
[22] = Ps. aeruginosa IFO3445, 10^6 cells per ml, 37° C., 20 hours, read-out: MIC
[23] = St. aureus FDA209P, 10^6 cells per ml, 37° C., 20 hours, read-out: MIC
[24] = St. aureus F-137, penicillinase-producing, 10^6 cells per ml, read-out: MIC
[25] = 20 h, Pro. vulgaris GN76, cephalospolinase-producing, 10^6 cells per ml, read-out: MIC
[26] = T216, 10^6 cells per ml, 20 hours, read-out: MIC
[27] = Pseudomonas aeruginosa, 20 h, read-out: MIC
[28] = T111, 10^6 cells per ml, 20 hours, read-out: MIC
[29] = S68, Ps. aeruginosa S-68, 10^6 cells per ml, 37° C., 20 hours, read-out: MIC

Compound	MIC [1] [µg/mL]	MIC [2, 20] [µg/mL]	MIC [3] [µg/mL]	MIC [4, 21] [µg/mL]	MIC [5] [µg/mL]	MIC [6] [µg/mL]	MIC ([7]; T111, 20 h, 10^6 cells per ml) [µg/mL]	MIC ([8]; T216, 20 h, 10^6 cells per ml) [µg/mL]	MIC [9] [µg/mL]	MIC [10, 22] [µg/mL]	MIC [12, 23] [µg/mL]	MIC [13] [µg/mL]	MIC [14] [µg/mL]	MIC ([15]; 20 h, read-out: MIC) [µg/mL]	MIC [16, 24] [µg/mL]	MIC [17] [µg/mL]	MIC [18, 25] [µg/mL]	MIC [8, 26] [µg/mL]	MIC [19, 27] [µg/mL]	MIC [11, 29] [µg/mL]	further results
CC(=O)Oc1ccc(-n2cc(C(=O)OCCN(C)C)c(=O)cc2-c2ccc(N(C)C)cc2)cc1 [drawing 37]	0.39 (≈ 0.841 µM)	0.39 (≈ 0.841 µM)	0.2 (≈ 0.431 µM)	1.56 (≈ 3.37 µM)	3.13 (≈ 6.75 µM)	0.78 (≈ 1.68 µM)	6.25 (≈ 13.5 µM)	3.13 (≈ 6.75 µM)	0.39 (≈ 0.841 µM)	12.5 (≈ 27 µM)	0.39 (≈ 0.841 µM)	1.56 (≈ 3.37 µM)	6.25 (≈ 13.5 µM)	12.5 (≈ 27 µM)	0.39 (≈ 0.841 µM)	≤ 0.05	1.56 (≈ 3.37 µM)	–	–	–	MIC ([11]; S68, 20 h): 6.25 µg/mL (≈ 13.5 µM); MIC [19]: 3.13 µg/mL (≈ 6.75 µM)
Cc1cc(O)ccc1-n1cc(C(=O)O)c(=O)cc1/C=C/c1ccccc1	0.1 (≈ 0.288 µM)	0.39 (≈ 1.12 µM)	0.2 (≈ 0.576 µM)	1.56 (≈ 4.49 µM)	3.13 (≈ 9.01 µM)	0.39 (≈ 1.12 µM)	3.13 (≈ 9.01 µM)	–	0.1 (≈ 0.288 µM)	25 (≈ 72 µM)	0.1 (≈ 0.288 µM)	0.39 (≈ 1.12 µM)	3.13 (≈ 9.01 µM)	6.25 (≈ 18 µM)	0.2 (≈ 0.576 µM)	≤ 0.05	0.39 (≈ 1.12 µM)	1.56 (≈ 4.49 µM)	1.56 (≈ 4.49 µM)	–	MIC ([11]; S68, 20 h): 3.13 µg/mL (≈ 9.01 µM)
O=C(O)c1cn(-c2ccc(F)cc2)c(-c2ccc(N=Cc3ccc([N+](=O)[O-])o3)cc2)cc1=O	3.13 (≈ 7 µM)	–	0.78 (≈ 1.74 µM)	–	6.25 (≈ 14 µM)	1.56 (≈ 3.49 µM)	–	–	0.39 (≈ 0.872 µM)	25 (≈ 55.9 µM)	–	3.13 (≈ 7 µM)	25 (≈ 55.9 µM)	50 (≈ 112 µM)	–	0.39 (≈ 0.872 µM)	–	3.13 (≈ 7 µM)	25 (≈ 55.9 µM)	25 (≈ 55.9 µM)	MIC [2]: 1.56 µg/mL (≈ 3.49 µM); MIC [4]: 6.25 µg/mL (≈ 14 µM); MIC [7, 28]: 12.5 µg/mL (≈ 27.9 µM); MIC [12]: 6.25 µg/mL (≈ 14 µM); MIC [16]: 6.25 µg/mL (≈ 14 µM); MIC ([18]; GN76, 20 h): 1.56 µg/mL (≈ 3.49 µM)
Cn1ccc2cc(-c3cc(=O)c(C(=O)O)cn3-c3ccc(F)cc3)ccc21	0.1 (≈ 0.276 µM)	0.39 (≈ 1.08 µM)	0.1 (≈ 0.276 µM)	1.56 (≈ 4.31 µM)	3.13 (≈ 8.64 µM)	0.78 (≈ 2.15 µM)	3.13 (≈ 8.64 µM)	–	0.2 (≈ 0.552 µM)	12.5 (≈ 34.5 µM)	0.39 (≈ 1.08 µM)	1.56 (≈ 4.31 µM)	3.13 (≈ 8.64 µM)	25 (≈ 69 µM)	0.39 (≈ 1.08 µM)	≤ 0.05	0.78 (≈ 2.15 µM)	1.56 (≈ 4.31 µM)	0.78 (≈ 2.15 µM)	12.5 (≈ 34.5 µM)	–
CC(=O)Oc1ccc(-n2cc(C(=O)O)c(=O)cc2-c2cc3ccccc3s2)c(F)c1	0.2 (≈ 0.472 µM)	0.39 (≈ 0.921 µM)	≤ 0.05	0.78 (≈ 1.84 µM)	3.13 (≈ 7.39 µM)	0.39 (≈ 0.921 µM)	–	–	0.1 (≈ 0.236 µM)	–	0.1 (≈ 0.236 µM)	0.39 (≈ 0.921 µM)	3.13 (≈ 7.39 µM)	–	≤ 0.05	≤ 0.05	0.39 (≈ 0.921 µM)	1.56 (≈ 3.68 µM)	6.25 (≈ 14.8 µM)	1.56 (≈ 3.68 µM)	MIC [7, 28]: 1.56 µg/mL (≈ 3.68 µM); MIC ([10]; IFO3445, 20 h): 3.13 µg/mL (≈ 7.39 µM); MIC ([15]; GN3379, 20 h): 3.13 µg/mL (≈ 7.39 µM)
Cc1cc(O)ccc1-n1cc(C(=O)O)c(=O)cc1C1CCCC1	0.78 (≈ 2.49 µM)	0.78 (≈ 2.49 µM)	0.39 (≈ 1.24 µM)	1.56 (≈ 4.98 µM)	3.13 (≈ 9.99 µM)	0.78 (≈ 2.49 µM)	3.13 (≈ 9.99 µM)	3.13 (≈ 9.99 µM)	≤ 0.05	12.5 (≈ 39.9 µM)	0.78 (≈ 2.49 µM)	1.56 (≈ 4.98 µM)	6.25 (≈ 19.9 µM)	25 (≈ 79.8 µM)	0.39 (≈ 1.24 µM)	0.2 (≈ 0.638 µM)	0.78 (≈ 2.49 µM)	–	–	12.5 (≈ 39.9 µM)	MIC ([19]; Pseudomonas aeruginosa, GN918, 20 h): 3.13 µg/mL (≈ 9.99 µM)
